Experiments:
Assay type in all cases: cell-based
[1] = test system: Normal Human Dermal Fibroblasts (NHDF); experiment: Cell growth / cell counts of NHDF during exposure and 96 hours after removal (Example 4); settings: for Cell Counts after exposure and additional 96 hours with compound removed: NHDF re-seeded at 45,000 cells/well; for cell growth during exposure, in words: 24 and 48 hours of exposure
Procedure: Examination of the cell growth effects upon 24 hour and 48 hour exposure of Normal Human Dermal Fibroblasts (NHDF) to 5,6-dihydroxy-hexan-2-one. After the 24 hour or 48 hour exposures, the 5,6-dihydroxy-hexan-2-one was removed and the cells were allowed to grow for an additional 96 hours, then evaluated for growth.
The assay used was a luminescent cell viability assay available under the trade designation CellTiter-Glo from Promega Corporation (Madison, Wis.). This assay determines the number of viable cells present based on the amount of adenosine triphosphate (ATP) present from the cell cytoplasm. The concentration of ATP present is proportional to the measured amount of a luminescent signal. […] The Normal Human Dermal Fibroblasts were available from Clonetics Corporation (San Diego, Calif.).
The 5,6-dihydroxy-hexan-2-one (1.2 grams) was dissolved in 12 ml of phosphate buffered saline and was filter sterilized through a 0.22 micrometer syringe filter prior to use. The 5,6-dihydroxy-hexan-2-one was further diluted to 10^−1, 10^−2, and 10^−3 using serial dilutions for the evaluation.
NHDF were seeded at 45,000 cells/well in four 24 well plates (two testing cell growth and two to re-seed after 24 and 48 hours without 5,6-dihydroxy-hexan-2-one). 24 hours after seeding, 5,6-dihydroxy-hexan-2-one was added to the cell culture plates (2 ml/well) at a concentration of 10^−1, 10^−2, and 10^−3. Assay plates were pulled for cell growth analysis at 24 and 48 hours after addition of the chemical compound. Samples were analyzed on the above-described assay according to a published method. The other two assay plates were washed and re-seeded at 45,000 cells/well at 24 and 48 hour time points without the presence of 5,6-dihydroxy-hexan-2-one. Both plates were grown for an additional 96 hours before a cell count was taken.
To determine proliferation potential post-exposure, cells were reseeded after exposure to 5,6-dihydroxy-hexan-2-one as follows. Additional groups of cells exposed to 5,6-dihydroxy-hexan-2-one for 24 and 48 hours were then washed thoroughly to remove 5,6-dihydroxy-hexan-2-one and harvested from the culture substrate. Those cells were then plated out at the same density as before, but without exposure to 5,6-dihydroxy-hexan-2-one. These two groups were supplied with fresh media and allowed to grow for 96 additional hours. Visual representation of the 10^−1 and 10^−2 groups can be seen in FIG. 15 (10^−1, re-seeded without 5,6-dihydroxy-hexan-2-one for 96 hours) and FIG. 16 (10^−2, re-seeded without 5,6-dihydroxy-hexan-2-one for 96 hours).

[2] = test system: Normal Human Dermal Fibroblast (NHDF) cells; experiment: Cell proliferation and viability assays (CyQuant, CellTiter-Glo, CellTiter 96), NHDF (Example 5); settings: 48 hours
From the text: (§1) Multiple assays were used to test a variety of cellular properties expressed after exposure of different cells types to 5,6-dihydroxy-hexan-2-one. A cell proliferation assay available under the trade designation CyQuant from Invitrogen Corporation (Carlsbad, Calif.) determines the density of cells in culture by using a green fluorescent dye which fluoresces when bound to cellular nucleic acids. The amount of nucleic acid present is proportional to the amount of living cells in culture. […]
(§2) The amount of ATP present is proportional to the measured amount of a luminescent signal and therefore the amount of viable cells. […] The absorbance read is proportional to the amount of metabolic activity present in the cells.
(§3) Normal human dermal fibroblast (NHDF) cells and coronary artery smooth muscle cells (CASMC) in culture were exposed to 5,6-dihydroxy-hexan-2-one at concentrations of 10 microgram/ml, 1 mg/ml, and 10 mg/ml, for 48 hours, after which the cell culture wells were analyzed for cell proliferation and viability. […] FIG. 17 is a graphical representation of fibroblast cell numbers measured after 48 hours exposure to different concentrations of 5,6-dihydroxy-hexan-2-one. FIG. 18 is a graphical representation of smooth muscle cell numbers measured after 48 hours exposure to different concentrations of 5,6-dihydroxy-hexan-2-one. […]

[3] = test system: coronary artery smooth muscle cells (CASMC); experiment: Cell proliferation and viability assays (CyQuant, CellTiter-Glo, CellTiter 96), CASMC (Example 5); settings: 48 hours
From the text: as §1, §2, §3

[4] = test system: human Glioblastoma/Astrocytoma U87 cells; experiment: Cell migration after 48 hours exposure, U87 (Example 6); settings: U87, 10 mg/ml and 1 mg/ml
Procedure: Evaluation of the effects of 5,6-dihydroxy-hexan-2-one on human umbilical vein endothelial cells (HUVEC) and Glioblastoma/Astrocytoma cells U87 cellular proliferation and migration during 120 hours following 48 hour exposure to 5,6-dihydroxy-hexan-2-one at concentration of 10 mg/ml, 1 mg/ml, 100 micrograms/ml. Controls were cells not exposed to the agent.
In order to further explore the effects of this compound, experiments to evaluate the dose-effect response on the antiproliferative effect and on cell migration were conducted on two cell lines, human umbilical vein endothelial cells (HUVEC) and Glioblastoma/Astrocytoma cells (U87), over 120 hours after 48 hours of exposure to the compound.
FIGS. 24(a)-(l) are pictures that visually display the migration over time of human Glioblastoma/Astrocytoma U87 cells after 48 hours exposure to various concentrations of 5,6-dihydroxy-hexan-2-one. Specifically, FIGS. 24(a)-(d) represent the control, FIGS. 24(e)-(h) represent 10 mg/ml, and FIGS. 24(i)-(l) represent 1 mg/ml 5,6-dihydroxy-hexan-2-one. FIGS. 24(a), (e), and (i) represent migration after 2 hours; FIGS. 24(b), (f), and (j) represent migration after 14 hours; FIGS. 24(c), (g), and (k) represent migration after 20 hours; and FIGS. […], (h), and (l) represent migration after 48 hours.

[5] = other concentrations (10 microgram/ml, 1 mg/ml)

Structure (SMILES): CC(=O)CCC(O)CO (centres unmarked) [5,6-dihydroxy-hexan-2-one]
- Cell Counts after exposure and additional 96 hours with compound removed ([1]; 0.1 mg/ml, 24 Hour Group): 200,000 cells
- Cell Counts after exposure and additional 96 hours with compound removed ([1]; 0.1 mg/ml, 48 Hour Group): 207,500 cells
- Cell Counts after exposure and additional 96 hours with compound removed ([1]; 1 mg/ml, 24 Hour Group): 172,000 cells
- Cell Counts after exposure and additional 96 hours with compound removed ([1]; 1 mg/ml, 48 Hour Group): 165,000 cells
- Cell Counts after exposure and additional 96 hours with compound removed ([1]; 10 mg/ml, 24 Hour Group): 55,000 cells
- Cell Counts after exposure and additional 96 hours with compound removed ([1]; 10 mg/ml, 48 Hour Group): 65,000 cells
- Cell Counts after exposure ([1]; NHDF, 0.1 mg/ml, 24 Hour Group): 180,000 cells
- Cell Counts after exposure ([1]; NHDF, 0.1 mg/ml, 48 Hour Group): 305,000 cells
- Cell Counts after exposure ([1]; NHDF, 1 mg/ml, 24 Hour Group): 160,000 cells
- Cell Counts after exposure ([1]; NHDF, 1 mg/ml, 48 Hour Group): 150,000 cells
- Cell Counts after exposure ([1]; NHDF, 10 mg/ml, 24 Hour Group): 65,000 cells
- Cell Counts after exposure ([1]; NHDF, 10 mg/ml, 48 Hour Group): 80,000 cells
- cell growth during exposure, in words ([1]; NHDF, 10^-1 concentration group): only a minimal amount of growth
- cell growth after 96 hours without compound, in words ([1]; NHDF, 10^-1 group, after withdrawal): significant inhibition of cell growth
- cell growth during exposure, in words ([1]; NHDF, 10^-2 concentration group): reduced from the control
- cell growth after 96 hours without compound, in words ([1]; NHDF, 10^-2 group, after withdrawal): slight reduction of cell growth
- cell growth after withdrawal, in words ([1]; NHDF, 10^-3 concentration (lowest tested), after withdrawal): behave similar to controls
- cell growth during exposure, in words ([1]; NHDF, 10^-3 concentration group): continued to grow without problems
- cell proliferation ([2]; 10 mg/ml): inhibition of cell proliferation
- cell proliferation [2, 5]: did not show this effect
- cell proliferation ([3]; 10 mg/ml): inhibition of cell proliferation
- cell proliferation [3, 5]: did not show this effect
- cell migration [4]: did not shown differences

From patent US20090061515A1, “Methods of inhibiting or suppressing cellular proliferation” (priority 2007, published 2009)
